This note sets out measurements from US20260241039A1, “FLUORESCENT PROBES FOR MAGL” (Hoffmann-La Roche Inc., priority 2022, published 2026).

pIC50: −log10 of the molar value.

The assay has as its target T1, hMAGL (Homo sapiens, UniProt Q99685).
T1 sequence (Q99685 1-303): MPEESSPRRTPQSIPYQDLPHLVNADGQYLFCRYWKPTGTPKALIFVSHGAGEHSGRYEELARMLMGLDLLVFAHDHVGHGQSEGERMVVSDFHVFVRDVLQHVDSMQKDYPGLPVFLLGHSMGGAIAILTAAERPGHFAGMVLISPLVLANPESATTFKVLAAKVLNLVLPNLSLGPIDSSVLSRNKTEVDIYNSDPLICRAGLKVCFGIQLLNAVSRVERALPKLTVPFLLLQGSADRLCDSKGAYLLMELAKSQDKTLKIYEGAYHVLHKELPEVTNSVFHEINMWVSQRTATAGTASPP
The assay can be described thus: 2-AG assay: MAGL inhibitory activity, hydrolysis of 2-arachidonoylglycerol to arachidonic acid followed by mass spectrometry. The assay is classed as biochemical. Conditions: 15 min pre-incubation at RT, 30 min reaction at RT, 8 μM 2-arachidonoylglycerol. The method, then: Compounds were profiled for MAGL inhibitory activity by determining the enzymatic activity by following the hydrolysis of the natural substrate 2-arachidonoylglycerol (2-AG) resulting in arachidonic acid, which can be followed by mass spectrometry. This assay is hereinafter abbreviated “2-AG assay”.
The 2-AG assay was carried out in 384 well assay plates (PP, Greiner Cat #784201) in a total volume of 20 μL. Compound dilutions were made in 100% DMSO (VWR Chemicals 23500.297) in a polypropylene plate in 3-fold dilution steps to give a final concentration range in the assay from 12.5 μM to […]. 0.25 μL compound dilutions (100% DMSO) were added to 9 μL MAGL in assay buffer (50 mM TRIS (GIBCO, 15567-027), 1 mM EDTA (Fluka, 03690-100 mL), 0.01% (v/v) Tween. After shaking, the plate was incubated for 15 min at RT. To start the reaction, 10 μL 2-arachidonoylglycerol in assay buffer was added. The final concentrations in the assay was […] and 8 μM 2-arachidonoylglyerol. After shaking and 30 min incubation at RT, the reaction was quenched by the addition of 40 μL of ACN containing 4 μM of d8-arachidonic acid. The amount of arachidonic acid was traced by an online SPE system (Agilent Rapidfire) coupled to a triple quadrupole mass spectrometer (Agilent 6460). A C18 SPE cartridge (G9205A) was used in an ACN/water liquid setup. The mass spectrometer was operated in negative electrospray mode following the mass transitions 303.1→259.1 for arachidonic acid and 311.1→267.0 for d8-arachidonic acid. The activity of the compounds was calculated based on the ratio of intensities [arachidonic acid/d8-arachidonic acid].
A word on the pIC50: it is −log10 of the IC50, conventionally taken in molar units. A high value points to a low IC50. In turn, `O=C1CO[C@H]2CCN(C(=O)N3CC4(CC(=CC5=C6C=CC=[N+]6[B-](F)(F)n6cccc65)C4)C3)C[C@H]2N1` [Example 15, (4aR,8aS)-6-(6-((5,5-difluoro-5H-4λ^4, 5λ^4-dipyrrolo[1,2-c:2,1′-f][1,3,2]diazaborinin-10-yl)methylene)-2-azaspiro[3.3]heptane-2-carbonyl)hexahydro-2H-pyrido[4,3-b][1,4]oxazin-3(4H)-one] showed a negative logarithm of the IC50 (pIC50) of 7.36.
For “2-(7-((5,5-difluoro-5H-4λ^4,5λ^4-dipyrrolo[1,2-c:2′,1′-f][1,3,2]diazaborinin-10-yl)methylene)-2-azaspiro[3.5]nonane-2-carbonyl)-7-oxa-2,5-diazaspiro[3.4]octan-6-one [Example 20]” the value was 9.17; for “(4aR,8aS)-6-(6-((5,5-difluoro-3-(1H-pyrrol-2-yl)-5H-4λ^4,5λ^4-dipyrrolo[1,2-c:2′,1′-f][1,3,2]diazaborinin-10-yl)methyl)-2-azaspiro[3.3]heptane-2-carbonyl)hexahydro-2H-pyrido[4,3-b][1,4]oxazin-3(4H)-one [Example 30]”, 10.30.
With `O=C1CO[C@H]2CCN(C(=O)N3CC(COc4ccc5ccc(=O)oc5c4)C3)C[C@H]2N1` [Example 2, (4aR,8aS)-6-(3-(((2-oxo-2H-chromen-7-yl)oxy)methyl)azetidine-1-carbonyl)hexahydro-2H-pyrido[4,3-b][1,4]oxazin-3(4H)-one], the pIC50 is 6.31.
As for `O=C1CO[C@H]2CCN(C(=O)N3CC(COc4cc(=O)oc5ccccc45)C3)C[C@H]2N1` [Example 3, (4aR,8aS)-6-(3-(((2-oxo-2H-chromen-4-yl)oxy)methyl)azetidine-1-carbonyl)hexahydro-2H-pyrido[4,3-b][1,4]oxazin-3(4H)-one], the figure is 6.18; as for “(R)-4-(3-(6-((5,5-difluoro-5H-4λ^4,5λ^4-dipyrrolo[1,2-c:2′,1′-f][1,3,2]diazaborinin-10-yl)methyl)-2-azaspiro[3.3]heptan-2-yl)-3-oxopropyl)oxazolidin-2-one [Example 28]”, 9.00.
